# Experimental data from patent KR20140034898A, “헤테로시클릭 술폰아미드 유도체” (노파르티스 아게, priority 2011, dated 2012).
# Columns and labels:
# [1] = biological target: BRAF-MEK-ERK cascade [BRAF-MEK-ERK 캐스케이드]; test: BRAF-MEK-ERK cascade assay (TR-FRET, recombinant enzymes); type: biochemical, human; conditions: mean ± SEM, n=3; 100 μM ATP; 45 min pre-incubation, 90 min kinase reaction
# A375 cells [A375 세포] = test: A375 cell viability assay (XTT); type: cell-based; conditions: Homo sapiens, A-375, 72 h, 3 days after compound addition
# A375 P-Erk = A375 P-Erk (In-Cell-Western); type: cell-based; conditions: A-375; A375 human melanoma cells, 3 h compound treatment, triplicate; 100% inhibition = reference inhibitor at highest test concentration
# [2] = Pharmacokinetics in athymic nude rats; type: in vivo, rat; conditions: one-way ANOVA versus Example 1
Structure (SMILES),IC50 [1],GI50 (A375 cells [A375 세포]),EC50 (A375 P-Erk),PK parameters compared with Example 1 [2]
"O=S(=O)(Nc1c(Nc2ccc(I)cc2F)c(F)c(F)c2ccoc12)C1(CC(O)CO)CC1 (racemic) [실시예 1, 1-(2,3-디히드록시-프로필)-시클로프로판술폰산 [4,5-디플루오로-6-(2-플루오로-4-아이오도-페닐아미노)-벤조푸란-7-일]아미드]",2.1 ± 0.58 nM,17.6 nM,12.2 nM,–
"O=S(=O)(Nc1c(Nc2ccc(I)cc2F)c(F)c(F)c2ccoc12)C1(C[C@H](O)CO)CC1 (single isomer, unassigned) [실시예 1A]",2 ± 0.25 nM,13.4 nM,6.4 nM,증진된 PK-파라미터
"O=S(=O)(Nc1c(Nc2ccc(I)cc2F)c(F)c(F)c2ccoc12)C1(C[C@@H](O)CO)CC1 (single isomer, unassigned) [실시예 1B]",1.6 ± 0.1 nM,29.6 nM,15.6 nM,증진된 PK-파라미터
